We go through seven molecules from US20200147059A1, “NEW THERAPEUTIC USES OF ENZYME INHIBITORS” (Proximagen, LLC, priority 2017, published 2020).

One data set deals with T1, human VAP-1 (SSAO) (Homo sapiens, UniProt Q16853).
T1 construct: made in house
T1 sequence (Q16853 29-763 limits assumed): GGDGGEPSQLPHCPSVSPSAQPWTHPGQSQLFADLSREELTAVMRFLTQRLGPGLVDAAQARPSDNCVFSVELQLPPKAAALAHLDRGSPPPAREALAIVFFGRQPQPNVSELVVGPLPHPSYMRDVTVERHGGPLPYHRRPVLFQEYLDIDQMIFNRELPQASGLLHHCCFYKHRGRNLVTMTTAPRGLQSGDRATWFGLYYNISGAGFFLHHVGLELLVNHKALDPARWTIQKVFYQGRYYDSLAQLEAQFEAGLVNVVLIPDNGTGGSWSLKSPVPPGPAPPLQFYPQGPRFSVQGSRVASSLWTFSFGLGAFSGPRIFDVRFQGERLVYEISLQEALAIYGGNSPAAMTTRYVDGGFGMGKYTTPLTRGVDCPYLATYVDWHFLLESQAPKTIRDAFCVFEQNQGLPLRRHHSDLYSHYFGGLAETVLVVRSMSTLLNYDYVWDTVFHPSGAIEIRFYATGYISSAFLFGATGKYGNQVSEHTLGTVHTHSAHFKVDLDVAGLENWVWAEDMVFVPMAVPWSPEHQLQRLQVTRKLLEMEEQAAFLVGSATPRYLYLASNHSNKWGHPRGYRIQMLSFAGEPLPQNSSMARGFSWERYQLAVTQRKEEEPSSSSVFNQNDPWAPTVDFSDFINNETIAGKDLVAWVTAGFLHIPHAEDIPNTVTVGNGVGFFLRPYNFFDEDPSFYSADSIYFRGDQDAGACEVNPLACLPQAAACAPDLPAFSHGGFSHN
Put plainly: VAP-1 Inhibition Assay. To be noted: purified recombinantly expressed human VAP-1 (SSAO), benzylamine substrate, room temperature. It is filed as biochemical. How it is done:
This assay is performed at room temperature with purified recombinantly expressed human VAP-1 (SSAO). Enzyme was prepared essentially as described in Ohman et al. (Protein Expression and Purification 46 (2006) 321-331). The enzyme activity is assayed with benzylamine as substrate by measuring either benzaldehyde production, using 14C-labeled substrate, or by utilizing the production of hydrogen peroxide in a horseradish peroxidise (HRP) coupled reaction. Briefly, test compounds are dissolved in dimethyl sulfoxide (DMSO) to a concentration of 10 mM. Dose-response measurements are assayed by either creating 1:10 serial dilutions in DMSO to produce a 7 point curve or by making 1:3 serial dilutions in DMSO to produce 11 point curves. The top concentrations are adjusted depending on the potency of the compounds and subsequent dilution in reaction buffer yielded a final DMSO concentration ≤2%.
Hydrogen peroxide detection: In a horseradish peroxidise (HRP) coupled reaction, hydrogen peroxide oxidation of 10-acetyl-3,7-dihydroxyphenoxazine produces resorufin, which is a highly fluorescent compound (Zhout and Panchuk-Voloshina. Analytical Biochemistry 253 (1997) 169-174; AmplexR Red Hydrogen Peroxide/peroxidise Assay kit, Invitrogen A22188). Enzyme and compounds in 50 mM sodium phosphate, pH 7.4 are set to pre-incubate in flat-bottomed microtiter plates for approximately 15 minutes before initiating the reaction by addition of a mixture of HRP, benzylamine and Amplex reagent. Benzylamine concentration is fixed at a concentration corresponding to the Michaelis constant, determined using standard procedures. Fluorescence intensity is then measured at several time points during 1-2 hours, exciting at 544 nm and reading the emission at 590 nm. For the human SSAO assay final concentrations of the reagents in the assay wells are: SSAO enzyme 1 mg/ml, benzylamine 100 μM, Amplex reagent 20 μM, HRP 0.1 U/mL and varying concentrations of test compound. The inhibition is measured as % decrease of the signal compared to a control without inhibitor (only diluted DMSO). The background signal from a sample containing no SSAO enzyme is subtracted from all data points. Data is fitted to a four parameter logistic model and IC50 values are calculated, for example by using the GraphPad Prism 4 or XLfit 4 programs.

Data set [1] concerns sumatriptan-primed rats. Put plainly: stress induced allodynia in a rat model of medication overuse headache (MOH). It is filed as in vivo. As to conditions: bright light stress, oral 33.3 mg/ml, 3 ml/kg, measured day 21 over 5 h. How it is done:
The effects of compounds on stress induced allodynia in a rat model of medication overuse headache (MOH) The effects of compounds on stress induced cephalic and extracephalic allodynia in sumatriptan-primed rats was tested.
Sprague Dawley rats were implanted with osmotic minipumps (model 2001; Alzet, Cupertino, Calif., USA) providing continuous infusion of sumatriptan (0.6 mg/kg/day, s.c) or vehicle (saline, 0.9% NaCl) for 7 days. Mechanical facial (FIG. 1; A) and hindpaw (FIG. 1; C) allodynia was measured during a 19 day time course.
On day 20, when mechanical thresholds are at basal levels, all rats received either 4-{5-[3-(4-Fluorophenyl)-3H-imidazo[4,5-c]pyridin-2-yl]pyridin-2-yl}morpholine (compound 4) or vehicle orally (33.3 mg/ml, Dose 3 ml/kg) and then they were exposed to bright lights for 1 h (bright light stress; BLS). Rats received a second dose of the assigned treatment in the afternoon.
On day 21 all rats received a third dose of the assigned treatment and then they were again exposed to BLS for 1 h. Mechanical facial (FIG. 1; B) and hindpaw (FIG. 1; D) allodynia was measured over a 5 h time course.
Sumatriptan-treated, but not saline-treated, rats developed generalized allodynia during minipump infusion measured in the periorbital and hindpaw regions (FIG. 1; A, C; day 6). Mechanical thresholds returned to baseline on days 10 and 19. […]

Data set [2] in a line: CNS penetration (brain:plasma ratio). It counts as in vivo. As to conditions: rat, whole brain homogenate and plasma, intravenous; total brain:plasma ratio adjusted for plasma protein binding and brain tissue binding; read-out: unbound (free) brain:plasma ratio. The text has this:
Central nervous system (CNS) penetration of compounds of the invention can be determined by for example, intravenous dosing in a rat and subsequent quantitative LCMS analysis of the drug concentration in plasma and whole brain homogenate. The total brain:plasma ratio can then be calculated. This total ratio can be adjusted for plasma protein binding (PPB) and brain tissue binding (BTB) determined by standard means to give an unbound (free) brain:plasma ratio. For example, Compound 4 of the invention has an unbound (free) brain:plasma ratio of 0.72, indicating good CNS penetration of the compound.

The target in another data set is T2, VAP-1 (Homo sapiens, UniProt Q16853).
T2 sequence (Q16853 1-763): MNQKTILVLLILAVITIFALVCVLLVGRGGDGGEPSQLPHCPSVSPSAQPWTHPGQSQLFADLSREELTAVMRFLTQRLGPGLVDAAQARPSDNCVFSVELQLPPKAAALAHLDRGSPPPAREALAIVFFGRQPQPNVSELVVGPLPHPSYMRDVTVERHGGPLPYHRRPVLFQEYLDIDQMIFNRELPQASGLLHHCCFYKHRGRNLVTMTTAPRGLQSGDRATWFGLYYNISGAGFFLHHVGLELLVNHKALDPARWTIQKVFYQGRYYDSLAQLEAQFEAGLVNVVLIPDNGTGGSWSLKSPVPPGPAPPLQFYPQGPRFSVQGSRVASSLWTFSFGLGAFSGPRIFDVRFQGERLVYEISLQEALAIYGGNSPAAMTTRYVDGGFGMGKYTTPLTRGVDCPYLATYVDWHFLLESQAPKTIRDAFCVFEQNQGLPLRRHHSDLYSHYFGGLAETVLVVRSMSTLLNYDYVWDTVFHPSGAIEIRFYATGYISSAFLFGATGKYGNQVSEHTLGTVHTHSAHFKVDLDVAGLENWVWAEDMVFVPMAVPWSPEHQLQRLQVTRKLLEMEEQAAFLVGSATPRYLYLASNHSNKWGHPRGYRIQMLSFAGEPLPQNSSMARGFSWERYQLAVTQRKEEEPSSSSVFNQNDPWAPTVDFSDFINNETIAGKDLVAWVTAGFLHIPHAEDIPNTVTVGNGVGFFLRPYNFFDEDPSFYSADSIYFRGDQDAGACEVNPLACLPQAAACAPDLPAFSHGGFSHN
As to conditions: known; cited from earlier work.

The subject of data set [3] is sumatriptan-primed rats. As to conditions: Kopruszinski et al, Cephalalgia, 2017; cited from earlier work.
The conditions of data set [4]: phase IIb chronic migraine study; cited from earlier work.

A word on the IC50: it is the concentration that gives 50% inhibition.

With `CS(=O)(=O)N1CCN(c2ccc(-c3nc4ccncc4n3-c3ccc(F)cc3)cn2)CC1` [Compound 3, 1-{5-[3-(4-Fluorophenyl)-3H-imidazo[4,5-c]pyridin-2-yl]pyridin-2-yl}-4-methanesulfonylpiperazine], on human VAP-1 (SSAO), the IC50 came out at 4 nM.
On the same count and under the same terms, next, `C=C(CNN)c1ccccc1` [LJP1207, reference compound]: 34 nM.
For `Fc1ccc(-n2c(-c3ccc(N4CCOCC4)nc3)nc3ccncc32)cc1` [Compound 4, 4-{5-[3-(4-Fluorophenyl)-3H-imidazo[4,5-c]pyridin-2-yl]pyridin-2-yl}morpholine], the IC50 on human VAP-1 (SSAO) came out at 13 nM. Moreover, in the data set with sumatriptan-primed rats [1], the stress-induced hindpaw allodynia entry is reported as “significantly reduced” and the stress-induced periorbital allodynia result is “significantly reduced”. Moreover, the unbound brain:plasma ratio (Kp,uu) in data set [2] amounted to 0.72.
Consider `C[C@@](Cc1ccc(O)c(O)c1)(NN)C(=O)O` [(S)-Carbidopa, reference compound], for which the IC50 on human VAP-1 (SSAO) was found to be 142 nM. In addition, at VAP-1, the “inhibition of VAP-1” value is “very good inhibitors of VAP-1”.
As for `CC(=O)N1CCN(c2ccc(-c3nc4ccncc4n3-c3ccc(F)cc3)cn2)CC1` [Compound 2, 1-(4-{5-[3-(4-Fluorophenyl)-3H-imidazo[4,5-c]pyridin-2-yl]pyridin-2-yl}piperazin-1-yl)ethan-1-one], the IC50 at human VAP-1 (SSAO) amounted to 31 nM.
For the molecule `NC(CO)C(=O)NNCc1ccc(O)c(O)c1O` (stereo not drawn) [benserazide, Benserazide], the “inhibition of VAP-1” value on VAP-1 is “very good inhibitors of VAP-1”.

B1: TEV48125: a fully humanised CGRP antibody (antibody, chains of the INN, looked up, V domains shown)
VH: EVQLVESGGGLVQPGGSLRLSCAASGFTFSNYWISWVRQAPGKGLEWVAEIRSESDASATHYAEAVKGRFTISRDNAKNSLYLQMNSLRAEDTAVYYCLAYFDYGLAIQNYWGQGTLVTVSS
VL: EIVLTQSPATLSLSPGERATLSCKASKRVTTYVSWYQQKPGQAPRLLIYGASNRYLGIPARFSGSGSGTDFTLTISSLEPEDFAVYYCSQSYNYPYTFGQGTKLEIK
B1: the “efficacy in the MOH model” value in the data set on sumatriptan-primed rats [3] was “efficacious”. Besides, the “efficacy in human clinical trials” value in data set [4] is “efficacious”.
